Measured values reported in patent US6436960B1, “Farnesyl transferase inhibitors having a piperidine structure and process for preparation thereof” (LG Chemical Ltd., priority 1998, dated 2002).

How the values were obtained:
Ras farnesyl transferase [1] = biological target: T1, Ras farnesyl transferase (Homo sapiens, UniProt P49354+P49356); assay: in vitro inhibitory activity for Ras farnesyl transferase, H-Ras substrate; assay type: biochemical; conditions: recombinant Ras farnesyl transferase, H-Ras substrate, tritium-farnesylpyrophosphate, 30 minutes at 37° C.; read-out: H-Ras IC50
T1 construct: made in house
Procedure: (§1) In the present experiment, Ras farnesyl transferase produced by genetic recombination techniques according to the improved Pompliano's method (Pompliano et al., Biochemistry, 1992, 31, 3800) was used, and Ras substrate(Ras-CVLS) protein described in Korean Patent Appln. No. 97-14409 was used after it has been purified according to the known method(see, Chung et al., Biochimica et Biophysica Acta, 1992, 278, 1129).
(§2) The enzyme reaction was performed in 50 μl of 50 mM Soduam HEPES buffer solution containing 25 mM of potassium chloride, 25 mM of magnesium chloride, 10 mM of DTT and 50 μM of zinc chloride. 1.5 μM of Ras substrate protein, 0.15 μM of tritium-farnesylpyrophosphate and 4.5 nM of farnesyl transferase were used.
(§3) More specifically, in the initial step, farnesyl transferase was added to the above buffer solution, reaction was maintained for 30 minutes at 37° C. and then the reaction was stopped by adding 1 ml of ethanol solution containing 1M HCl. The formed precipitates were adsorbed to GF/B filter using Hopper harvestor(Hopper #FH 225V) for filter-binding, washed with ethanol, and then radioactivity of the dried filter was measured using LKB β counter. Enzyme titer was measured in the unsaturated state of substrate where the concentrations of Ras substrate protein and farnesyl transferase have quantitative relationship. The compound according to the present invention dissolved in dimethyl sulfoxide(DMSO) was added to the reaction solution in an amount of less than 5% of the total reaction solution, and then the enzyme inhibitory activity thereof was measured. The enzyme inhibitory activity was represented by percentage of the amount of farnesyl incorporated into the Ras substrate protein in the presence of the test compound to that in the absence of the test compound. IC50 of the test compound was defined as the concentration at which 50% of the enzyme activity was inhibited.

Ras farnesyl transferase [2] = biological target: T1, Ras farnesyl transferase; assay: in vitro inhibitory activity for Ras farnesyl transferase, K-Ras substrate; assay type: biochemical; conditions: recombinant Ras farnesyl transferase, K-Ras substrate; read-out: K-Ras IC50
Procedure: as §1, with “and Ras substrate(Ras-CVLS) protein described in Korean Patent” left out
as §2, §3

Ras farnesyl transferase [3] = biological target: T2, Ras farnesyl transferase (Rattus norvegicus, UniProt Q02293+Q04631); assay: in vivo (cellular) Ras farnesyl transferase inhibitory activity, Rat2 cells expressing C-Harvey-Ras; assay type: cell-based; conditions: Rat2 cell line expressing C-Harvey-Ras; concentration inhibiting 50% of farnesyl binding of Ras protein; read-out: H-Ras CIC50
T2 construct: endogenous in cells; host or cells: Rat2 fibroblasts transformed with C-Harvey-Ras, or with H-Ras carrying the K-Ras C-terminal polybasic lysine domain
Procedure: (§4) In the present experiment, Rat2 cell line which expresses C-Harvey-Ras protein having transforming activity and Rat2 cell line(Korean patent application No. 97-14409) which is transformed with fused protein of H-Ras substituted with polybasic lysine domain at C-terminus of K-Ras were used. The experiment was performed by the modified Declue's method(Declue. J. E. et al., Cancer Research, 1991, 51, 712). Hereinafter, the experimental method will be described in more detail.
(§5) 3×10^5 cells of transformed Rat2 fibroblast cell line were sprayed on 60 mm cell cultivation dish and cultivated for 48 hours in a cell incubator at 37° C. and after 50% or more of density was reached, it was treated with the test compounds. The compound according to the present invention dissolved in dimethylsulfoxide(DMSO) was used. 1% concentration of dimethylsulfoxide was used in both control and test groups. After 4 hours from the treatment with the compound, methionine labeled with 150 μCi of radioactive isotope [^35S] per 1 ml of medium was added and after cultivating for 20 hours, the cells were washed with physiological saline water. The cells were lysed using 1 ml of cold cell lysis buffer solution(50 mM of Sodium HEPES buffer solution containing 5 mM of magnesium chloride, 1 mM of DTT, 1% NP 40, 1 mM of EDTA, 1 mM of PMSF, 2 μM of leupeptin, 2 μM of pepstatin A and 2 μM of antipain) and the supernatant wherein the cells were lysed was obtained by high-velocity centrifugation of 12,000 g×5 minutes. The amount of radioisotope in the supernatant was measured and standardized to obtain a quantitative result in immunoprecipitation reaction and then, Y13-259, a monoclonal antiboby specifically binding to Ras protein(Furth, M. E. et al., J. Virol, 1982, 43, 294) was added and reacted for 15 hours at 4° C. Protein A(combined with goat anti-murine imunoglobulin antibody)-agarose suspension was added to the solution and reacted for 1 hour at 4° C. and then, to remove the unspecific binding product, immunoprecipitates were washed with a buffer solution (50 mM Tris chloride buffer solution containing 50 mM of sodium chloride, 0.5% of sodium dioxycholate, 0.5% of NP 40 and 0.1% of SDS). The precipitates were added to a buffer solution for electrophoresis and boiled and then, electrophoresis was performed using 13.5% of SDS polyacrylamide gel. After electrophoresis, the gel was fixed and dried. Then, the gel was exposed to X-ray film, developed and printed. From the result of the experiment, intensities of band of protein combined with or without farnesyl of Ras protein were measured, and the concentration of the test compound inhibiting 50% of farnesyl binding was defined as CIC50, an in vivo Ras farnesyl transferase inhibitory activity.

Ras farnesyl transferase [4] = biological target: T2, Ras farnesyl transferase; assay: in vivo (cellular) Ras farnesyl transferase inhibitory activity, Rat2 cells transformed with H-Ras fused with polybasic lysine domain of K-Ras; assay type: cell-based; conditions: Rat2 cell line transformed with H-Ras substituted with polybasic lysine domain at C-terminus of K-Ras; concentration inhibiting 50% of farnesyl binding; read-out: K-Ras CIC50
Procedure: as §4, §5

| IC50 (Ras farnesyl transferase [1]) | IC50 (Ras farnesyl transferase [2]) | IC50 (Ras farnesyl transferase [3]) | IC50 (Ras farnesyl transferase [4]) | SMILES |
| --- | --- | --- | --- | --- |
| 8.5 nM | 2400 nM | 100 nM | 1000 to 10000 nM | O=C(OCc1ccccc1)N1CCC(Cn2cncc2Cn2cc(C(=O)N3CCOCC3)c(-c3cccc4ccccc34)c2)CC1 [Compound 1, 1-[1-(1-Benzyloxycarbonyl-piperidin-4-ylmethyl)-1H-imidazol-5-ylmethyl]-3-(morpholin-4-yl)carbonyl-4-(naphthalen-1-yl)-1H-pyrrole] |
| 9 nM | 6000 nM | 100 nM | 10000 to 100000 nM | O=C(c1cn(Cc2cncn2CC2CCNCC2)cc1-c1cccc2ccccc12)N1CCOCC1 [Compound 2] |
| 1 nM | 16 nM | 10 to 100 nM | 10000 to 50000 nM | CC(=O)N1CCC(Cn2cncc2Cn2cc(C(=O)N3CCOCC3)c(-c3cccc4ccccc34)c2)CC1 [Compound 3, 1-[1-(1-Acetylpiperidin-4-ylmethyl)-1H-imidazol-5-ylmethyl]-3-(morpholinyl)carbonyl-4-(naphthalen-1-yl)-1H-pyrrole] |
| 3.6 nM | 26 nM | 10 to 100 nM | 10000 to 50000 nM | CS(=O)(=O)N1CCC(Cn2cncc2Cn2cc(C(=O)N3CCOCC3)c(-c3cccc4ccccc34)c2)CC1 [Compound 4, 1-[1-(1-Methylsulfonyl-piperidin-4-ylmethyl)-1H-imidazol-5-ylmethyl]-3-(morpholin-4-yl)carbonyl-4-(naphthalen-1-yl)-1H-pyrrole] |
| 2.5 nM | 10 to 100 nM | 10 to 100 nM | 1000 to 10000 nM | COCCN(C)C(=O)c1cn(Cc2cncn2CC2CCN(C(=O)OCc3ccccc3)CC2)cc1-c1cccc2ccccc12 [Compound 5, 1-[1-(1-Benzyloxycarbonyl-piperidin-4-ylmethyl)-1H-imidazol-5-ylmethyl]-3-[N-(2-methoxyethyl)-N-methyl]carbamoyl-4-(naphthalen-1-yl)-1H-pyrrole] |
| 8 nM | 10 to 1000 nM | 10 to 100 nM | 1000 to 10000 nM | COCCN(C)C(=O)c1cn(Cc2cncn2CC2CCNCC2)cc1-c1cccc2ccccc12 [Compound 6, 3-[N-(2-Methoxyethyl)-N-methyl]carbamoyl-4-(naphthalen-1-yl)-1-[1-(piperidin-4-ylmethyl)-1H-imidazol-5-ylmethyl]-1H-pyrrole] |
| 1.8 nM | 10 to 100 nM | 10 to 100 nM | 10000 to 100000 nM | COCCN(C)C(=O)c1cn(Cc2cncn2CC2CCN(C(C)=O)CC2)cc1-c1cccc2ccccc12 [Compound 7, 1-[1-(1-Acetyl-piperidin-4-ylmethyl)-1H-imidazol-5-ylmethyl]-3-[N-(2-methoxyethyl)-N-methyl]carbamoyl-4-(naphthalen-1-yl)-1H-pyrrole] |
| 1.2 nM | 10 to 100 nM | 10 to 100 nM | 10000 to 50000 nM | COCCN(C)C(=O)c1cn(Cc2cncn2CC2CCN(S(C)(=O)=O)CC2)cc1-c1cccc2ccccc12 [Compound 8, 3-[N-(2-Methoxyethyl)-N-methyl]carbamoyl-1-[1-(1-methylsulfonyl-piperidin-4-ylmethyl)-1H-imidazol-5-ylmethyl]-4-(naphthalen-1-yl)-1H-pyrrole] |
| 1 to 10 nM | 10 to 1000 nM | 10 to 100 nM | 1000 to 50000 nM | COCCN(C)C(=O)c1cn(Cc2cncn2CC2CCN(C(=O)NCc3ccccc3)CC2)cc1-c1cccc2ccccc12 [Compound 9, 1-{1-[1-(N-Benzylcarbamoyl)-piperidin-4-ylmethyl]-1H-imidazol-5-ylmethyl}-3-[N-(2-methoxyethyl)-N-methyl]carbamoyl(naphthalen-1-yl)-1H-pyrrole] |
| 1 to 10 nM | 10 to 1000 nM | 10 to 100 nM | 1000 to 50000 nM | CCCCNC(=O)N1CCC(Cn2cncc2Cn2cc(C(=O)N(C)CCOC)c(-c3cccc4ccccc34)c2)CC1 [Compound 10, 1-{1-[1-(N-Butylcarbamoyl)-piperidin-4-ylmethyl]-1H-imidazol-5-ylmethyl}-3[N-(2-methoxyethyl)-N-methyl]carbamoyl-4-(naphthalen-1-yl)-1H-pyrrole] |
| 1 to 10 nM | 10 to 1000 nM | 10 to 100 nM | 1000 to 50000 nM | COCCN(C)C(=O)c1cn(Cc2cncn2CC2CCN(C(=O)NC3CCCCC3)CC2)cc1-c1cccc2ccccc12 [Compound 11, 1-{1-[1-(N-Cyclohexylcarbamoyl)-piperidin-4-ylmethyl]-1H-imidazol-5-ylmethyl}-3-[N-(2-methoxyethyl)-N-methyl]carbamoyl-4-(naphthalen-1-yl)-1H-pyrrole] |
| 1 to 10 nM | 10 to 1000 nM | 10 nM | 1000 to 50000 nM | CCCCCCC(=O)N1CCC(Cn2cncc2Cn2cc(C(=O)N(C)CCOC)c(-c3cccc4ccccc34)c2)CC1 [Compound 12, 1-[1-(1-Heptanoyl-piperidin-4-ylmethyl)-1H-imidazol-5-ylmethyl]-3-[N-(2-methoxyethyl)-N-methyl]carbamoyl-4-(naphthalen-1-yl)-1H-pyrrole] |
| 1 to 10 nM | 10 to 1000 nM | 10 to 100 nM | 1000 to 50000 nM | COCCN(C)C(=O)c1cn(Cc2cncn2CC2CCN(C(=O)Cc3ccc(OC)cc3)CC2)cc1-c1cccc2ccccc12 [Compound 13, 1-{1-[1-(4-Methoxybenzylcarbonyl)-piperidin-4-ylmethyl]-1H-imidazol-5-ylmethyl}-3-[N-(2-methoxyethyl)-N-methyl]carbamoyl-4-(naphthalen-1-yl)-1H-pyrrole] |
| 2.1 nM | 10 to 1000 nM | 10 to 100 nM | 1000 to 50000 nM | COCCN(C)C(=O)c1cn(Cc2cncn2CC2CCN(C(=O)COc3ccccc3)CC2)cc1-c1cccc2ccccc12 [Compound 14, 3-[N-(2-Methoxyethyl)-N-methyl]carbamoyl-4-(naphthalen-1-yl)-1-[1-(1-phenoxyacetyl-piperidin-4-ylmethyl)-1H-imidazol-5-ylmethyl]-1H-pyrrole] |
| 1 nM | 10 to 1000 nM | 10 to 100 nM | 1000 to 50000 nM | COCCN(C)C(=O)c1cn(Cc2cncn2CC2CCN(C(=O)CCc3ccccc3)CC2)cc1-c1cccc2ccccc12 [Compound 15, 3-[N-(2-Methoxyethyl)-N-methyl]carbamoyl-4-(naphthalen-1-yl)-1-{1-[1-(2-phenylethylcarbonyl)-piperidin-4-ylmethyl]-1H-imidazol-5-ylmethyl}-1H-pyrrole] |
